Columns and labels:
Conditions in all cases: 72 h
Calu-3 [1] = assay: drug sensitivity score (DSS) for viability; higher = more toxic; extreme values may be limits of the assay
HepG2 [2] = assay: as above
Caco-2 [3] = assay: as above
U2OS [4] = assay: as above
Calu-3 [5] = assay: cell viability relative to DMSO; higher = less toxic
HepG2 [6] = assay: as above
Caco-2 [7] = assay: as above
U2OS [8] = assay: as above
Calu-3 [9] = assay: relative viability EC50 (midpoint between 100% and the lowest measured viability); higher = less toxic
HepG2 [10] = assay: as above
Caco-2 [11] = assay: as above
U2OS [12] = assay: as above
Vero E6 [13] = assay: drug sensitivity score (DSS) for viability; higher = more toxic; extreme values may be limits of the assay
Vero E6 [14] = assay: cell viability relative to DMSO; higher = less toxic

SMILES	drug sensitivity score (Calu-3 [1])	drug sensitivity score (HepG2 [2])	drug sensitivity score (Caco-2 [3])	drug sensitivity score (U2OS [4])	cell viability (Calu-3 [5]; 1 nM) [%]	cell viability (Calu-3 [5]; 10 nM) [%]	cell viability (Calu-3 [5]; 100 nM) [%]	cell viability (Calu-3 [5]; 1000 nM) [%]	cell viability (Calu-3 [5]; 10000 nM) [%]	cell viability (HepG2 [6]; 1 nM) [%]	cell viability (HepG2 [6]; 10 nM) [%]	cell viability (HepG2 [6]; 100 nM) [%]	cell viability (HepG2 [6]; 1000 nM) [%]	cell viability (HepG2 [6]; 10000 nM) [%]	cell viability (Caco-2 [7]; 1 nM) [%]	cell viability (Caco-2 [7]; 10 nM) [%]	cell viability (Caco-2 [7]; 100 nM) [%]	cell viability (Caco-2 [7]; 1000 nM) [%]	cell viability (Caco-2 [7]; 10000 nM) [%]	cell viability (U2OS [8]; 1 nM) [%]	cell viability (U2OS [8]; 10 nM) [%]	cell viability (U2OS [8]; 100 nM) [%]	cell viability (U2OS [8]; 1000 nM) [%]	cell viability (U2OS [8]; 10000 nM) [%]	relative viability EC50 (Calu-3 [9]) [µM]	relative viability EC50 (HepG2 [10]) [µM]	relative viability EC50 (Caco-2 [11]) [µM]	relative viability EC50 (U2OS [12]) [µM]	drug sensitivity score (Vero E6 [13])	cell viability (Vero E6 [14]; 1 nM) [%]	cell viability (Vero E6 [14]; 10 nM) [%]	cell viability (Vero E6 [14]; 100 nM) [%]	cell viability (Vero E6 [14]; 1000 nM) [%]	cell viability (Vero E6 [14]; 10000 nM) [%]
CC(=O)N(CC(O)CN(C(C)=O)c1c(I)c(C(=O)NCC(O)CO)c(I)c(C(=O)NCC(O)CO)c1I)c1c(I)c(C(=O)NCC(O)CO)c(I)c(C(=O)NCC(O)CO)c1I (centres undefined) [iodixanol]	0	0	0	0	88.1	107	95.9	97.2	96.3	107	99.2	108	102	105	96.9	102	87	102	102	95.4	101	95.6	108	97.5	> 10	> 10	> 10	> 10						
C1Cc2[nH]nc(-c3nn[nH]n3)c2C1 [MK-0354]	0	0	0	0	99.8	92.7	91.6	112	101	102	98	95.6	105	95.4	97	91.1	95.2	88.9	102	101	96.2	103	96.7	103	> 10	> 10	> 10	> 10						
CC(C)(C)c1cc(C(C)(C)C)c(NC(=O)c2c[nH]c3ccccc3c2=O)cc1O [ivacaftor]	0.7	0	0.4	0.1	97.2	103	93.3	91.1	84.1	105	105	100	100	98.3	104	98.8	99.6	101	81.6	100	103	95.3	103	86.8	> 10	> 10	> 10	> 10						
COc1ccc(-c2ccc3c(N4CCOCC4)nc(N4C[C@@H](C)O[C@@H](C)C4)nc3n2)cc1CO	10.1	7.2		5.1																									4.6					
c1ccc(N2CCN(Cc3nc4ccccc4[nH]3)CC2)nc1 [ABT-724]	0	0	0	0	93.5	105	101	104	114	92.4	100	99.2	95.7	106	91.7	99.8	97.8	100	94	98.8	103	98.7	104	98.6	> 10	> 10	> 10	> 10						
COC(=O)[C@H](Cc1ccccc1)NC(=O)[C@@H](N)CC(=O)O [aspartame]	0	0	0	0	91.2	100	92.8	89.4	96.5	98.3	91.6	98.2	94.3	102	97.8	99.1	101	99.6	94	99.8	99.7	98.6	103	101	> 10	> 10	> 10	> 10						
CCCCCCCCCC(=O)OC1(c2ccc(Cl)cc2)CCN(CCCC(=O)c2ccc(F)cc2)CC1 [haloperidol-decanoate]	0	0	0	0	103	105	112	99.8	114	112	108	106	112	97.1	104	104	104	93.5	105	107	101	104	101	99.2	> 10	> 10	> 10	> 10						
CN1C[C@@H]2C[C@H]1CN2c1cc2c(cc1F)c(=O)c(C(=O)O)cn2C1CC1 [danofloxacin]	0	0		0																									0					
Nc1nc(N)nc(-c2cc(Cl)ccc2Cl)n1 [irsogladine]	0	0	0	0	112	93.7	91.5	110	99.1	89.4	93.9	94.6	93.5	105	101	99	101	102	108	105	97.3	101	100	99.2	> 10	> 10	> 10	> 10						
C[C@@H](O)[C@H]1C(=O)N2C(C(=O)O)=C(S[C@@H]3CN[C@H](C(=O)N(C)C)C3)[C@H](C)[C@H]12 [meropenem]	0		0.1	0	96.1	109	88.9	104	98.5						83.8	99.6	91.3	111	84.3	101	102	99.9	104	102	> 10		> 10	> 10						
CN1C[C@@H]2CN(c3ccc(-c4ccccc4)nn3)C[C@@H]2C1	0	0	0		90.3	100	97.6	98.6	91.6	104	97.3	110	98.9	96	105	104	101	103	99.5						> 10	> 10	> 10							
CC(C)(C)NCC(O)COc1ccc(NC(=O)NC2CCCCC2)cc1 (centres undefined) [talinolol]	0	0		0																									0					
Cc1ccc(NC2=NCCN2)c(Cl)c1 [tolonidine]	0	0	0	0	101	112	96.5	106	99.3	116	109	109	99	111	90.3	101	93.9	99	99.5	101	106	97.3	102	96.3	> 10	> 10	> 10	> 10						
Cc1ccc(-c2nc3ccc(C)cn3c2CC(=O)N(C)C)cc1 [ZOLPIDEM]	0	0	0	0	102	109	97	95.9	105	110	97.7	101	97.1	99.6	95.5	97	117	95.1	98.1	101	104	101	100	96.2	> 10	> 10	> 10	> 10						
COc1cc(S(C)(=O)=O)ccc1Nc1nc2ccc(-c3ccc(NC(=O)[C@H](C)c4ccc(F)cc4)cc3)cn2n1 [Mps1-IN-5]	0	7.9	2.9	6.7	101	94.6	94.6	101	91.8	106	108	106	56.2	49.2	97.7	96.4	103	78.2	87.4	99.9	99.6	94.2	66.7	70.6	> 10	0.508	> 10		6.6	101	97	95.2	66.4	71.5

Reference: the supplement of paper PMC13380429
